Ten compounds from patent US20260138961A1, “MODULATORS OF MITOCHONDRIAL DNA REPLICATION” (Pretzel Therapeutics, Inc., priority 2022, published 2026) can be followed below.

As usually defined, the AC50 is the concentration giving half of the maximal activity seen. A lower AC50 goes with activity at low concentration.

Where only a bound is given, the exact number is not on record here.

This test has as its target T1, POLγA:Y955C (Homo sapiens, UniProt P54098, Y955C).
T1 sequence (P54098 1-1239 Y955C): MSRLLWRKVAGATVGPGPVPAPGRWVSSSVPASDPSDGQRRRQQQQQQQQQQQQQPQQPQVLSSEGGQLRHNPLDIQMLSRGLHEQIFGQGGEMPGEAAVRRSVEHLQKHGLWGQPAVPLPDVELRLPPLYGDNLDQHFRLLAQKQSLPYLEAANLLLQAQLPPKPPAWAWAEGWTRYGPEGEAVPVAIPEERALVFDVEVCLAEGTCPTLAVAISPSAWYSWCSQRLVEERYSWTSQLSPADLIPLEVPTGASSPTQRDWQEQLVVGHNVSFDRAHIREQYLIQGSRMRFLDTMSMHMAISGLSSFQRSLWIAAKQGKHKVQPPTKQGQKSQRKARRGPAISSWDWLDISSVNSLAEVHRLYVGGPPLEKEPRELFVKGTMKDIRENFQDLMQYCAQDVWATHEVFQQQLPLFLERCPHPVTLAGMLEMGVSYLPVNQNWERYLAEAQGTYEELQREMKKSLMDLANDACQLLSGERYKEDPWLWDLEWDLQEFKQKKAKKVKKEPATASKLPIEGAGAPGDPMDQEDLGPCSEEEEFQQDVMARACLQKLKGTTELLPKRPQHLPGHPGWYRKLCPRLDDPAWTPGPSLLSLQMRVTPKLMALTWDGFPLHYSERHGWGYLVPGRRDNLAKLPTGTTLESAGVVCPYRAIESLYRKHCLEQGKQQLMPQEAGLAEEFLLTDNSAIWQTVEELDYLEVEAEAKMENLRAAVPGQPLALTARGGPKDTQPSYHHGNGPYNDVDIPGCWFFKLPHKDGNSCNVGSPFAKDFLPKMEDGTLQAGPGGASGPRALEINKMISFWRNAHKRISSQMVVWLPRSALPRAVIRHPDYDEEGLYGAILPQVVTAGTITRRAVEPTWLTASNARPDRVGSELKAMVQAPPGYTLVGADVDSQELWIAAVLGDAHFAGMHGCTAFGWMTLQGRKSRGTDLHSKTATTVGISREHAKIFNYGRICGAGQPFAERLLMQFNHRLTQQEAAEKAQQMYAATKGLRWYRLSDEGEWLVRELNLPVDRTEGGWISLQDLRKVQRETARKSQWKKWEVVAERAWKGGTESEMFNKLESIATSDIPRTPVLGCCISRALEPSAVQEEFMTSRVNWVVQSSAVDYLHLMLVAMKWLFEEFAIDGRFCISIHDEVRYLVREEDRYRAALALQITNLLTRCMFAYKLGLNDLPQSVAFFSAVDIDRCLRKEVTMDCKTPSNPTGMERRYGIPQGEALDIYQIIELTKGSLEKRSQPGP
T1 sequence (Q9UHN1 1-485 partner): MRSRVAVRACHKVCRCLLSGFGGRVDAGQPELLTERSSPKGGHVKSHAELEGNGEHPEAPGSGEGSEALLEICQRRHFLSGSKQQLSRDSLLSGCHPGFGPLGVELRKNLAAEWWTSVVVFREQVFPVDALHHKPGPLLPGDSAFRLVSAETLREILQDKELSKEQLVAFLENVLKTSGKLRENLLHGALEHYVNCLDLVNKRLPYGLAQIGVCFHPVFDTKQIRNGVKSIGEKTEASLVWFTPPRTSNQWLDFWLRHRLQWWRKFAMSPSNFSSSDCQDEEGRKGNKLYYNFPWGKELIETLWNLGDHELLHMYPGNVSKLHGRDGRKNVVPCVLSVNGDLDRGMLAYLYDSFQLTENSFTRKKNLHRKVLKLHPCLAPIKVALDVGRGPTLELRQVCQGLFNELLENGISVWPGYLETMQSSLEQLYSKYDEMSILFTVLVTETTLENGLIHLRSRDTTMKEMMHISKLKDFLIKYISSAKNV
The test is described as follows: DNA polymerization assay, POLγA:Y955C mutant. The following applies: stimulation of polymerase activity, primed M13mp18 ssDNA, 37° C. 2 hours. It counts as biochemical. On the procedure:
DNA Polymerization Assay to Monitor Effects on Human Wildtype POLγ and Four Disease-Causing Mutant Variants of Human POLγ.
The ability of small molecules to stimulate the polymerase activity of POLγ was analyzed in a quantitative fluorescence SYBR Green I assay with fluorescence intensity (FI) readout.
In the presence of dNTPs, wild type human POLγ and mutant derivatives thereof were incubated with single-stranded, circular M13mp18 ssDNA hybridized to a short DNA oligonucleotide that functions as a primer for initiation of DNA synthesis. POLγ and mutant derivatives thereof will extend the primer and use the M13mp18 molecule as a template to synthesize long stretches of double-stranded DNA. SYBR Green I, which is a double-stranded DNA-binding dye, was used to quantify formation of double-stranded DNA in the reaction. When bound to double-stranded DNA, SYBR Green I fluorescence increases by up to 100-fold.
The assay was performed in the 384-well plate format. Upon addition of compounds, changes in double-stranded DNA synthesis activity can be monitored by following effects on fluorescent intensity.
The reactions also contained the accessory POLγB subunit, and the human mitochondrial single-stranded DNA binding protein (mtSSB).
The DNA template mixture used in the assay contained 0.5 nM primed M13 mp18 ssDNA, 400 nM mtSSB, 0.1 mM Tris-HCl (pH 8.0), 0.1 mM dNTP, 10 mM MgCl2, 0.1 mg/mL BSA, 1 mM TCEP solution, and 0.02% Triton X-100. The DNA template mixture for the wild type protein contained either 100 μM dNTP, 1 μM dNTP, or 0.1 μM dNTP, designated in Table 2 as 100 μM, 1 μM, and 0.1 μM, respectfully.
Microplates with compounds (0.1 μL in each well) to be tested in the assay were prepared from 10 mM compound stocks in 100% DMSO, and equal amounts of DMSO without any compound were added to positive and negative control wells.
The protein mixture was dispensed (5 μL into each well) into compound plates and incubated at 37° C. for 15 minutes. After incubation, 5 μL of the DNA template mixture was dispensed into each well. The plates were then incubated at 37° C. for 2 hours.
During incubation, a combined stop buffer and detection reagent solution was prepared. The buffer contained 25 mM EDTA (pH 8.0), 0.02% Triton X-100, and SYBR Green I [Invitrogen] diluted 10,000× (for fluorescent readout). EDTA will stop the enzymatic reaction by chelating magnesium ions.
`CC[C@@H]1CCCN1C(=O)c1cccc(NS(=O)(=O)c2cc(C)c(Cl)cc2C)c1` [Example 65, (R)-4-chloro-N-(3-(2-ethylpyrrolidine-1-carbonyl)phenyl)-2,5-dimethylbenzenesulfonamide] had an AC50 of 2000 nM. With `Cc1cnc(-c2cccc(NS(=O)(=O)c3cc(C)c(Cl)cc3C)c2)s1` [Example 21, 4-chloro-2,5-dimethyl-N-(3-(5-methylthiazol-2-yl)phenyl)benzenesulfonamide] the figure was 1000 nM; with `Cc1cc(S(=O)(=O)Nc2ccc3ccn(C(C)C)c3c2)c(C)cc1Cl` [Example 69, 4-chloro-N-(1-isopropyl-1H-indol-6-yl)-2,5-dimethylbenzenesulfonamide], 400 nM; with `Cc1cc(S(=O)(=O)Nc2cccc(-c3cc(C4CC4)[nH]n3)c2)c(C)cc1Cl` [Example 64, 4-chloro-N-(3-(5-cyclopropyl-1H-pyrazol-3-yl)phenyl)-2,5-dimethylbenzenesulfonamide], more than 100000 nM.

Regarding `Cc1nc2ccc(NS(=O)(=O)c3cc(C)c(Cl)cc3C)cc2o1` [Example 70, 4-chloro-2,5-dimethyl-N-(2-methylbenzo[d]oxazol-6-yl)benzenesulfonamide], the AC50 was found to be 7000 nM. Under `Cc1cc2cc(NS(=O)(=O)c3cc(C)c(Cl)cc3C)ccc2[nH]1` [Example 184, 4-chloro-2,5-dimethyl-N-(2-methyl-1H-indol-5-yl)benzenesulfonamide] stands 2000 nM; under `Cc1ccc(C)c(S(=O)(=O)Nc2cccc(-c3nccs3)c2)c1` [Example 60], 400 nM; under `Cc1cc(-c2cccc(NS(=O)(=O)c3cc(C)c(Cl)cc3C)c2)n[nH]1` [Example 66, 4-chloro-2,5-dimethyl-N-(3-(5-methyl-1H-pyrazol-3-yl)phenyl)benzenesulfonamide], 2000 nM. Under `Cc1cc(S(=O)(=O)Nc2cccc(-c3cc[nH]n3)c2)c(C)cc1Cl` [Example 68, N-(3-(1H-pyrazol-3-yl)phenyl)-4-chloro-2,5-dimethylbenzenesulfonamide] stands 2000 nM.

In turn, `Cc1csc(-c2cccc(NS(=O)(=O)c3cc(C)c(Cl)cc3C)c2)n1` [Example 20, 4-chloro-2,5-dimethyl-N-(3-(4-methylthiazol-2-yl)phenyl)benzenesulfonamide] had an AC50 of 300 nM.
